{"source": "paper PMC10791743", "about": "“Selective CK1α degraders exert antiproliferative activity against a broad range of human cancer cell lines” (Nature Communications, 2024)", "key": {"MOLM-13 cells": {"system": "MOLM-13 cells", "assay": "MOLM-13 cell viability assay (CTG, 72 h)", "assay_type": "cell-based, human", "set-up": "key to Cell viability in MOLM-13 cells / cell viability, dose-response replicate values: % viability = 100 − % activity, normalized to controls", "settings": "for cell viability, dose-response replicate values: MOLM-13 WT, listed as CC-220", "procedure": "The primary screen was performed in 384-well format using the CellTiter Glo (CTG) luminescent cell viability assay (Promega) as previously described. […] After overnight incubation at 37 °C in a humidified 5% CO2 incubator, cells were treated with compounds in dose–response format using a Pintool on a Biomek FX^P Laboratory Automation Workstation (Beckman Coulter). […] Luminescence signal was measured using an EnVision plate reader (PerkinElmer). […]\nnumber per well and incubated overnight at 37 °C in a humidified 5 % CO2 incubator. Compounds were transferred to the assay plate from a dose-response plate using a Labcyte Echo 650 Acoustic Liquid Handler (Beckman Coulter , USA). […]\nusing Promega’s CellTiter-Glo reagent according to the manufacturer’s recommendation.\nLuminescence was measured on the Envision plate reader (PerkinElmer, USA). Raw luminescence relative light unit (RLU) values for each compound at each concentration were normalized to obtain % activity using the following equation (1): 100 × [(mean(negctrl) – compound)/(mean (negctrl) – mean (posctrl))]. The % activity was converted to % viability using the following equation (2):\n(100 – % activity), and then pooled from replicate experiments prior to fitting. Here, negctrl and posctrl refer to the negative (DMSO) and positive controls (staurosporine) on each plate. Dose-response curves were fit to the Hill equation using the GraphPad Prism (version 10). […]"}, "[1]": {"assay": "Pharmacokinetics in female CD1 mice", "assay_type": "in vivo, mouse", "settings": "female CD1 mice", "procedure": "Three mice were housed in each cage. […] Temperature and humidity were recorded by an auto-controlled data logger system. All the animals were provided a laboratory rodent diet (Altromin, Germany). Reverse osmosis water treated with ultraviolet light was provided ad libitum. Total 27 mice (n = 9/group) were divided into three groups as Group 1, Group 2, and Group 3 with a sparse sampling design (3 mice/time points). […] The formulation vehicle for IV was 5% v/v NMP, 5% v/v Solutol HS-15 and 90% v/v Normal saline, and for PO & IP was 10%v/v NMP, 10%v/v Solutol HS-15. 50%v/v PEG-400 and 30%v/v HPβCD (20%w/v) in saline. […] Immediately after blood collection, plasma was harvested by centrifugation at 12,300×g, 10 min at 4 °C and samples were stored at −70 ± 10 °C until bioanalysis. Concentrations of SJ3149 in mouse plasma samples were determined by fit-for-purpose LC–MS/MS method. Non-Compartmental-Analysis tool of Phoenix WinNonlin® (Version 8.3) was used to assess the pharmacokinetic parameters. Peak plasma concentration (Cmax) and time for the peak plasma concentration (Tmax) were the observed values. The area under the concentration–time curve (AUClast) was calculated by the linear trapezoidal rule. The terminal elimination rate constant, ke was determined by regression analysis of the linear terminal portion of the log plasma concentration-time curve. Clearance was estimated as Dose/AUCinf and Vss as CL*MRT."}, "[2]": {"settings": "single intraperitoneal 50 mg/kg, 0.5 hr"}, "[3]": {"settings": "single intraperitoneal 50 mg/kg, 1 hr"}, "[4]": {"settings": "single intraperitoneal 50 mg/kg, 2 hr"}, "[5]": {"settings": "single intraperitoneal 50 mg/kg, 6 hr"}, "[6]": {"settings": "single intraperitoneal 50 mg/kg, 8 hr"}, "[7]": {"settings": "single intraperitoneal 50 mg/kg, 24 hr"}}, "note": "Values joined by “and” are separate entries in the source; they are usually repeats but may differ in a detail not shown here. Identical values can stand only once."}
{"smiles": "O=C1CC[C@H](N2Cc3c(OCc4ccc(CN5CCOCC5)cc4)cccc3C2=O)C(=O)N1", "note": "[iberdomide, reference compound]", "values": [{"measurement": "Effect on MOLM-13 cell viability (cytotoxicity)", "setting": "MOLM-13 cells; CTG 72 h", "value": "very little effect"}, {"measurement": "cell viability, dose-response replicate values", "setting": "MOLM-13 cells; Concentration 0.00053416", "value": "104.205 and 101.273 and 105.756"}, {"measurement": "cell viability, dose-response replicate values", "setting": "MOLM-13 cells; Concentration 0.00160248", "value": "116.013 and 103.828 and 106.347"}, {"measurement": "cell viability, dose-response replicate values", "setting": "MOLM-13 cells; Concentration 0.00480744", "value": "99.9393 and 109.095 and 93.7856"}, {"measurement": "cell viability, dose-response replicate values", "setting": "MOLM-13 cells; Concentration 0.0144223", "value": "103.939 and 96.4969 and 110.266"}, {"measurement": "cell viability, dose-response replicate values", "setting": "MOLM-13 cells; Concentration 0.0432669", "value": "111.735 and 98.8709 and 109.735"}, {"measurement": "cell viability, dose-response replicate values", "setting": "MOLM-13 cells; Concentration 0.129801", "value": "112.307 and 99.7991 and 100.005"}, {"measurement": "cell viability, dose-response replicate values", "setting": "MOLM-13 cells; Concentration 0.389402", "value": "95.4783 and 95.9453 and 89.9456"}, {"measurement": "cell viability, dose-response replicate values", "setting": "MOLM-13 cells; Concentration 1.16821", "value": "93.0089 and 93.9287 and 92.6782"}, {"measurement": "cell viability, dose-response replicate values", "setting": "MOLM-13 cells; Concentration 3.50462", "value": "93.5137 and 89.0055 and 86.6893"}, {"measurement": "cell viability, dose-response replicate values", "setting": "MOLM-13 cells; Concentration 10.5139", "value": "95.8132 and 82.1796 and 91.7179"}]}
{"smiles": "O=C1CCC(N2Cc3cc(Nc4noc5ccccc45)ccc3C2=O)C(=O)N1", "note": "(stereo not shown) [SJ001043149]", "values": [{"measurement": "Plasma Concentration, Mean", "setting": "[1]; [2]", "value": 4253.68, "unit": "ng/mL"}, {"measurement": "Plasma Concentration, individual animal", "setting": "[1]; [2]", "value": "2474.57 ng/mL and 2615.2 ng/mL and 7671.27 ng/mL"}, {"measurement": "Plasma Concentration, Mean", "setting": "[1]; [3]", "value": 3788.89, "unit": "ng/mL"}, {"measurement": "Plasma Concentration, individual animal", "setting": "[1]; [3]", "value": "3408.76 ng/mL and 3558.82 ng/mL and 4399.09 ng/mL"}, {"measurement": "Plasma Concentration, Mean", "setting": "[1]; [4]", "value": 3436.75, "unit": "ng/mL"}, {"measurement": "Plasma Concentration, individual animal", "setting": "[1]; [4]", "value": "3844.39 ng/mL and 3042 ng/mL and 3423.87 ng/mL"}, {"measurement": "Plasma Concentration, individual animal", "setting": "[1]; single intraperitoneal 50 mg/kg, 4 hr", "value": "37.79e ng/mL and 613.87 ng/mL and 1233.77 ng/mL"}, {"measurement": "Plasma Concentration, Mean", "setting": "[1]; single intraperitoneal 50 mg/kg, 4 hr, average of two values", "value": 22172, "unit": "ng·h/mL"}, {"measurement": "Plasma Concentration, Mean", "setting": "[1]; [5]", "value": 336.83, "unit": "ng/mL"}, {"measurement": "Plasma Concentration, individual animal", "setting": "[1]; [5]", "value": "224.92 ng/mL and 422.53 ng/mL and 363.03 ng/mL"}, {"measurement": "Plasma Concentration, Mean", "setting": "[1]; [6]", "value": 626.18, "unit": "ng/mL"}, {"measurement": "Plasma Concentration, individual animal", "setting": "[1]; [6]", "value": "584.82 ng/mL and 376.02 ng/mL and 917.7 ng/mL"}, {"measurement": "Plasma Concentration, individual animal", "setting": "[1]; single intraperitoneal 50 mg/kg, 12 hr", "value": "1.02e ng/mL and 119 ng/mL and 188.95 ng/mL"}, {"measurement": "Plasma Concentration, Mean", "setting": "[1]; single intraperitoneal 50 mg/kg, 12 hr, average of two values", "value": 3695.5, "unit": "ng·h/mL"}, {"measurement": "Plasma Concentration, Mean", "setting": "[1]; [7]", "value": 14.86, "unit": "ng/mL"}, {"measurement": "Plasma Concentration, individual animal", "setting": "[1]; [7]", "value": "16.86 ng/mL and 11.98 ng/mL and 15.73 ng/mL"}, {"measurement": "Plasma Concentration, Mean", "setting": "[1]; single intravenous 3 mg/kg, 0.08 hr", "value": 3540.18, "unit": "ng/mL"}, {"measurement": "Plasma Concentration, individual animal", "setting": "[1]; single intravenous 3 mg/kg, 0.08 hr, 3 mg/kg", "value": "3522.19 ng/mL and 3164.19 ng/mL and 3934.15 ng/mL"}, {"measurement": "Plasma Concentration, Mean", "setting": "[1]; single intravenous 3 mg/kg, 0.5 hr", "value": 548.51, "unit": "ng/mL"}, {"measurement": "Plasma Concentration, individual animal", "setting": "[1]; single intravenous 3 mg/kg, 0.5 hr, 3 mg/kg", "value": "590.56 ng/mL and 721 ng/mL and 333.96 ng/mL"}, {"measurement": "Plasma Concentration, individual animal", "setting": "[1]; single intravenous 3 mg/kg, 1 hr, 3 mg/kg", "value": "89.11 ng/mL and 82.85 ng/mL and 465.12e ng/mL"}, {"measurement": "Plasma Concentration, Mean", "setting": "[1]; single intravenous 3 mg/kg, 1 hr, average of two values", "value": 2064, "unit": "ng·h/mL"}, {"measurement": "Plasma Concentration, Mean", "setting": "[1]; single intravenous 3 mg/kg, 2 hr", "value": 21.37, "unit": "ng/mL"}, {"measurement": "Plasma Concentration, individual animal", "setting": "[1]; single intravenous 3 mg/kg, 2 hr, 3 mg/kg", "value": "26.85 ng/mL and 22.73 ng/mL and 14.53 ng/mL"}, {"measurement": "Plasma Concentration, Mean", "setting": "[1]; single intravenous 3 mg/kg, 4 hr", "value": 5.15, "unit": "ng/mL"}, {"measurement": "Plasma Concentration, individual animal", "setting": "[1]; single intravenous 3 mg/kg, 4 hr, 3 mg/kg", "value": "2.92 ng/mL and 9.75 ng/mL and 2.78 ng/mL"}, {"measurement": "Plasma Concentration, individual animal", "setting": "[1]; single intravenous 3 mg/kg, 8 hr, LLOQ 1.00 ng/mL, 3 mg/kg", "value": "BLQ and 2.43e ng/mL"}, {"measurement": "Plasma Concentration, individual animal", "setting": "[1]; single intravenous 3 mg/kg, 12 hr, LLOQ 1.00 ng/mL", "value": "BLQ"}, {"measurement": "Plasma Concentration, individual animal", "setting": "[1]; single intravenous 3 mg/kg, 24 hr, LLOQ 1.00 ng/mL", "value": "BLQ"}, {"measurement": "Plasma Concentration, Mean", "setting": "[1]; single oral 50 mg/kg, 0.5 hr", "value": 1802.13, "unit": "ng/mL"}, {"measurement": "Plasma Concentration, individual animal", "setting": "[1]; single oral 50 mg/kg, 0.5 hr, 50 mg/kg", "value": "1597.22 ng/mL and 2494.42 ng/mL and 1314.74 ng/mL"}, {"measurement": "Plasma Concentration, Mean", "setting": "[1]; single oral 50 mg/kg, 1 hr", "value": 635.82, "unit": "ng/mL"}, {"measurement": "Plasma Concentration, individual animal", "setting": "[1]; single oral 50 mg/kg, 1 hr, 50 mg/kg", "value": "300.99 ng/mL and 799.29 ng/mL and 807.18 ng/mL"}, {"measurement": "Plasma Concentration, individual animal", "setting": "[1]; single oral 50 mg/kg, 2 hr, 50 mg/kg", "value": "207.45 ng/mL and 268.31 ng/mL and 77.73e ng/mL"}, {"measurement": "Plasma Concentration, Mean", "setting": "[1]; single oral 50 mg/kg, 2 hr, average of two values", "value": 5709.1, "unit": "ng·h/mL"}, {"measurement": "Plasma Concentration, Mean", "setting": "[1]; single oral 50 mg/kg, 4 hr", "value": 35.43, "unit": "ng/mL"}, {"measurement": "Plasma Concentration, individual animal", "setting": "[1]; single oral 50 mg/kg, 4 hr, 50 mg/kg", "value": "57.72 ng/mL and 27.57 ng/mL and 21 ng/mL"}, {"measurement": "Plasma Concentration, individual animal", "setting": "[1]; single oral 50 mg/kg, 6 hr, 50 mg/kg", "value": "5.43e ng/mL and 17.18 ng/mL and 23.01 ng/mL"}, {"measurement": "Plasma Concentration, Mean", "setting": "[1]; single oral 50 mg/kg, 6 hr, average of two values", "value": 482.4, "unit": "ng·h/mL"}, {"measurement": "Plasma Concentration, individual animal", "setting": "[1]; single oral 50 mg/kg, 8 hr, 50 mg/kg", "value": "6.11 ng/mL and 16.97 ng/mL and 1.39e ng/mL"}, {"measurement": "Plasma Concentration, Mean", "setting": "[1]; single oral 50 mg/kg, 8 hr, average of two values", "value": 277, "unit": "ng·h/mL"}, {"measurement": "Plasma Concentration, Mean", "setting": "[1]; single oral 50 mg/kg, 12 hr", "value": 3.98, "unit": "ng/mL"}, {"measurement": "Plasma Concentration, individual animal", "setting": "[1]; single oral 50 mg/kg, 12 hr, 50 mg/kg", "value": "3.44 ng/mL and 4.89 ng/mL and 3.6 ng/mL"}, {"measurement": "Plasma Concentration, individual animal", "setting": "[1]; single oral 50 mg/kg, 24 hr, LLOQ 1.00 ng/mL, 50 mg/kg", "value": "2.03e ng/mL and BLQ"}]}
